Assay results taken from PubChem BioAssay AID328 (DTP/NCI, 2004).
Where “and” joins values, the source holds several entries; their conditions need not be identical. Equal entries are not always repeated. Inconclusive results and toxic doses are left out. Rule for the calls: active = survival T/C of 150% or more; inactive = T/C below 125% in these data.

Tested on: BDF1 mice, P388 leukemia ip, median survival T/C
Assay: NCI In Vivo Anticancer Drug Screen. Data for tumor model P388 Leukemia (intraperitoneal) in B6D2F1 (BDF1) mice
Settings: endpoint: median survival time, higher = longer survival
Procedure, shortened: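 Reported as T/C, where T is the survival measurement in dosed animals and C the same measurement in vehicle controls.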

[1] = dose: 25.0 mg/kg/injection, schedule: Q01DX009 (ip), vehicle: saline with Tween-80
[2] = dose: 50.0 mg/kg/injection, schedule: Q01DX009 (ip), vehicle: saline with Tween-80
[3] = dose: 100.0 mg/kg/injection, schedule: Q01DX009 (ip), vehicle: saline with Tween-80
[4] = dose: 200.0 mg/kg/injection, schedule: Q01DX009 (ip), vehicle: saline with Tween-80
[5] = dose: 400.0 mg/kg/injection, schedule: Q01DX009 (ip), vehicle: saline with Tween-80
[6] = dose: 100.0 mg/kg/injection, schedule: Q01DX009 (ip), vehicle: Klucel (hydroxypropylcellulose) (HPC)
[7] = dose: 100.0 mg/kg/injection, schedule: Q04DX003 (ip), vehicle: Klucel (hydroxypropylcellulose) (HPC)
[8] = dose: 200.0 mg/kg/injection, schedule: Q01DX009 (ip), vehicle: Klucel (hydroxypropylcellulose) (HPC)
[9] = dose: 200.0 mg/kg/injection, schedule: Q04DX003 (ip), vehicle: Klucel (hydroxypropylcellulose) (HPC)
[10] = dose: 400.0 mg/kg/injection, schedule: Q01DX009 (ip), vehicle: Klucel (hydroxypropylcellulose) (HPC)
[11] = dose: 400.0 mg/kg/injection, schedule: Q04DX003 (ip), vehicle: Klucel (hydroxypropylcellulose) (HPC)

Measured: T/C

CCOC(=O)C(OCc1ccccc1)(C(=O)O)C(C)C (stereo not drawn)
inactive: [1] 95 % of control | [2] 90 % of control | [3] 109 % of control | [4] 100 % of control | [5] 104 % of control

Cc1cnc(O[Si](C)(C)C)nc1O[Si](C)(C)C
inactive: [3] 100 % of control | [4] 91 % of control | [5] 116 % of control

COc1cccc(CCCC(=O)C(C)S(C)=O)c1 (stereo not drawn)
inactive: [2] 112 % of control | [3] 101 % of control | [4] 110 % of control

C=CCn1c2ccccc2c2cc3cnccc3c(C)c21
inactive: dose: 50.0 mg/kg/injection, schedule: Q04DX003 (ip), vehicle: saline sonified 95 % of control | dose: 100.0 mg/kg/injection, schedule: Q04DX003 (ip), vehicle: saline sonified 90 % of control | dose: 200.0 mg/kg/injection, schedule: Q04DX003 (ip), vehicle: saline sonified 95 % of control

C=C1C(=O)OC2CC(C)C3C=CC(=O)C3(C)C(O)C12 (stereo not drawn)
inactive: dose: 5.0 mg/kg/injection, schedule: Q01DX009 (ip), vehicle: saline with Tween-80 113 % of control | dose: 10.0 mg/kg/injection, schedule: Q01DX009 (ip), vehicle: saline with Tween-80 112 % of control | dose: 20.0 mg/kg/injection, schedule: Q01DX009 (ip), vehicle: saline with Tween-80 115 % of control

CC(=O)Nc1c2sscc-2n(C)c1=O
inactive: dose: 0.39 mg/kg/injection, schedule: Q01DX009 (ip), vehicle: saline with Tween-80 97 % of control | dose: 0.78 mg/kg/injection, schedule: Q01DX009 (ip), vehicle: saline with Tween-80 104 % of control

Cc1ccc(S(=O)(=O)N(CC(=O)O)c2cccc(Cl)c2)cc1
inactive: [6] 100 % of control | [7] 100 % of control | [8] 100 % of control | [9] 104 % of control | [10] 104 % of control | [11] 100 % of control

COc1cc(N=Nc2c[nH]c3ccccc23)c(OC)cc1N=Nc1ccc([N+](=O)[O-])cc1
inactive: dose: 50.0 mg/kg/injection, schedule: Q01DX005 (ip), vehicle: saline with Tween-80 92 % of control | dose: 100.0 mg/kg/injection, schedule: Q01DX005 (ip), vehicle: saline with Tween-80 106 % of control | dose: 200.0 mg/kg/injection, schedule: Q01DX005 (ip), vehicle: saline with Tween-80 111 % of control

Nc1nccc(NC(c2ccccc2)c2ccccc2)c1N
inactive: dose: 3.0 mg/kg/injection, schedule: Q01DX009 (ip), vehicle: DMSO 95 % of control | dose: 6.0 mg/kg/injection, schedule: Q01DX009 (ip), vehicle: DMSO 100 % of control | dose: 12.0 mg/kg/injection, schedule: Q01DX009 (ip), vehicle: DMSO 95 % of control | dose: 12.5 mg/kg/injection, schedule: Q01DX009 (ip), vehicle: DMSO 103 % of control | dose: 12.5 mg/kg/injection, schedule: Q04DX003 (ip), vehicle: DMSO 95 % of control | dose: 25.0 mg/kg/injection, schedule: Q04DX003 (ip), vehicle: DMSO 100 % of control | dose: 50.0 mg/kg/injection, schedule: Q04DX003 (ip), vehicle: DMSO 100 % of control

O=C1C=CC(=O)c2c(Cl)ccc(O)c21
inactive: dose: 0.63 mg/kg/injection, schedule: Q01DX009 (ip), vehicle: Klucel (hydroxypropylcellulose) (HPC) 116 % of control

O=C(O)c1ccc(N2C(=O)C=CC2=O)cc1 (tested in a mixture with another compound)
inactive: dose: 0.39 mg/kg/injection, schedule: Q01DX009 (ip), vehicle: Klucel (hydroxypropylcellulose) (HPC) 95 % of control | dose: 0.78 mg/kg/injection, schedule: Q01DX009 (ip), vehicle: Klucel (hydroxypropylcellulose) (HPC) 108 % of control | dose: 1.25 mg/kg/injection, schedule: Q01DX001 (ip), vehicle: Klucel (hydroxypropylcellulose) (HPC) 100 % of control | dose: 1.56 mg/kg/injection, schedule: Q01DX009 (ip), vehicle: Klucel (hydroxypropylcellulose) (HPC) 95 % of control | dose: 2.5 mg/kg/injection, schedule: Q01DX001 (ip), vehicle: Klucel (hydroxypropylcellulose) (HPC) 104 % of control | dose: 3.12 mg/kg/injection, schedule: Q01DX009 (ip), vehicle: Klucel (hydroxypropylcellulose) (HPC) 110 % of control | dose: 4.6 mg/kg/injection, schedule: Q04DX003 (ip), vehicle: Klucel (hydroxypropylcellulose) (HPC) 95 % of control | dose: 5.0 mg/kg/injection, schedule: Q01DX001 (ip), vehicle: Klucel (hydroxypropylcellulose) (HPC) 104 % of control | dose: 7.0 mg/kg/injection, schedule: Q04DX003 (ip), vehicle: Klucel (hydroxypropylcellulose) (HPC) 95 % of control | dose: 10.0 mg/kg/injection, schedule: Q04DX003 (ip), vehicle: Klucel (hydroxypropylcellulose) (HPC) 100 % of control

CC(Br)C1(c2cccc([N+](=O)[O-])c2)OCCO1 (stereo not drawn)
inactive: dose: 25.0 mg/kg/injection, schedule: Q01DX001 (ip), vehicle: Klucel (hydroxypropylcellulose) (HPC) 100 % of control | dose: 50.0 mg/kg/injection, schedule: Q01DX001 (ip), vehicle: Klucel (hydroxypropylcellulose) (HPC) 104 % of control | dose: 100.0 mg/kg/injection, schedule: Q01DX001 (ip), vehicle: Klucel (hydroxypropylcellulose) (HPC) 90 % of control and 100 % of control

CCCN(CCC)c1ccc(/C=C/c2ccc3cc(OCC)ccc3n2)cc1
inactive: [6] 100 % of control | [7] 104 % of control | [8] 100 % of control | [9] 104 % of control | [10] 90 % of control | [11] 109 % of control

O=C(c1cc2c3ccccc3ccc2c2ccccc12)C(Br)Br
inactive: [1] 113 % of control

O=C(O)C1(C(=O)O)CCC1.[NH2-].[NH2-].[Pt+2]
inactive: dose: 43.2 mg/kg/injection, schedule: Q01DX001 (ip), vehicle: saline 120 % of control

C=CCC(CC)C(=O)Cl (stereo not drawn)
inactive: [3] 109 % of control | dose: 100.0 mg/kg/injection, schedule: Q04DX003 (ip), vehicle: saline with Tween-80 111 % of control | [4] 100 % of control | dose: 200.0 mg/kg/injection, schedule: Q04DX003 (ip), vehicle: saline with Tween-80 110 % of control | [5] 100 % of control | dose: 400.0 mg/kg/injection, schedule: Q04DX003 (ip), vehicle: saline with Tween-80 105 % of control and 110 % of control

CC(=O)C(C)(NCc1ccccc1)c1ccccc1 (stereo not drawn)
inactive: dose: 45.0 mg/kg/injection, schedule: Q01DX001 (ip), vehicle: saline 104 % of control | dose: 85.0 mg/kg/injection, schedule: Q01DX001 (ip), vehicle: saline 108 % of control and 116 % of control | dose: 100.0 mg/kg/injection, schedule: Q01DX001 (ip), vehicle: saline 109 % of control | dose: 135.0 mg/kg/injection, schedule: Q01DX001 (ip), vehicle: saline 120 % of control | dose: 200.0 mg/kg/injection, schedule: Q01DX001 (ip), vehicle: saline 104 % of control | dose: 300.0 mg/kg/injection, schedule: Q01DX001 (ip), vehicle: saline 100 % of control | dose: 400.0 mg/kg/injection, schedule: Q01DX001 (ip), vehicle: saline 104 % of control

CC1(C)C/C(=C\c2ccccc2)C(=O)c2ccccc21
inactive: dose: 25.0 mg/kg/injection, schedule: Q01DX009 (ip), vehicle: water 106 % of control | dose: 50.0 mg/kg/injection, schedule: Q01DX009 (ip), vehicle: water 95 % of control | dose: 100.0 mg/kg/injection, schedule: Q01DX009 (ip), vehicle: water 106 % of control | dose: 200.0 mg/kg/injection, schedule: Q01DX009 (ip), vehicle: water 88 % of control | dose: 400.0 mg/kg/injection, schedule: Q01DX009 (ip), vehicle: water 100 % of control

C=C(C)Cc1cnc(SCc2ccccc2)[nH]c1=O
inactive: [7] 104 % of control | [9] 109 % of control | [11] 113 % of control
